Test results as given in patent US20150166667A1, “METHODS AND COMPOSITIONS FOR TREATING CANCER” (RAMOT AT TEL-AVIV UNIVERSITY LTD., priority 2012, published 2015).

Experiments:
[1] = tested on: p21 (WAF1/Cip1); experiment: p21 (WAF1/Cip1) expression in Ha-Ras infected keratinocytes, Western blot; type: cell-based, mouse; conditions: control cells, TPA 100 nM for 24 hr, FIG. 10A
Protocol: Primary mouse keratinocytes derived from control and IR-KO mice were infected with Ha-Ras, and 24 hr later were treated with TPA [100 nM] or vehicle for 24 hr. Expression of p21 (WAF1/Cip1) was evaluated by Western blot analysis, using a polyclonal antibody. Localization of p21 in the cells was examined by staining for DAPI and p21 (WAF1/Cip1) and visualization using fluorescent microscopy.

[2] = tested on: primary keratinocytes and fibroblasts; experiment: 3D skin organotypic coculture, epidermal differentiation; type: cell-based, mice; conditions: for expression of K14 (marker of proliferating keratinocytes) / expression of the differentiation markers Keratin-1 and Loricrin: immunohistochemistry, 10^-6M insulin or 10^-7M IGF1, FIG. 3B
Protocol: Primary keratinocytes and fibroblasts were isolated from WT mice, and organotypic cocultures were plated. Immediately afterwards, 10^−6M insulin or 10^−7M IGF1 was added to the growth medium and maintained throughout the experiment. Coculture inserts were further processed; H&E staining of a tissue section is shown. The effects of insulin and IGF1 on differentiation of human keratinocytes were tested in a 3-dimensional organotypic skin co-culture. In this model system, primary murine or human keratinocytes were plated on top of a fibroblast-containing collagen gel dermal equivalent. Within a few days under proper growth conditions, the 3D-organotypic coculture became organized, mimicking the histological structure of the skin tissue in vivo, including the skin epidermal layers as well as keratin formation. By mimicking the natural tissue architecture, such conditions enable keratinocytes to recapitulate their tissue-specific differentiation program in vitro.

[3] = tested on: primary murine keratinocytes; experiment: In vitro scratch closure assay, primary murine keratinocytes; type: cell-based
Protocol: (§1) Insulin and IGF1 treatment: Primary murine keratinocytes were grown for 6 days in culture. On the day of the experiment insulin (10^−6M) or IGF-1 (10^−7M) were added, after which a scratch was made by a micropipette tip (day 0). In some of the plates, proliferation was inhibited by adding 25 microgram/ml mitomycin C, 4 hours prior to culture wounding. In another set of experiments (E-F) insulin receptor was inactivated by siRNA in human HaCaT skin cells. The effects of insulin and IGF1 were measured as described above. In all experiments digital photos were taken at day 0 and 24 hours later (day 1), from which 20 randomly chosen photos were taken from each treatment group and further analyzed to determine the average remaining scratch width.
(§2) The effect of insulin on skin cell migration was assessed using an in vitro scratch closure assay. Keratinocytes were grown to confluency, were left untreated or were treated with insulin or IGF-1, in the absence (6A; top panel) or presence (6A; bottom panel) of mitomycin C. The cell layer was scratched by a tip, and the degree of closure was subsequently measured. The amount of migration of control cells in each group (with or without mitomycin C) was assigned the value 100%. The average of 4 separate experiments is depicted. […] Similar results were obtained in human HaCaT skin cells in which the insulin receptor was inactivated by siRNA.

[4] = tested on: human HaCaT skin cells; experiment: In vitro scratch closure assay, HaCaT cells with IR inactivated by siRNA; type: cell-based; conditions: FIG. 6B
Protocol: as §1, §2

[5] = tested on: SCC Cal 27 cells; experiment: Proliferation of SCC Cal 27 cells by thymidine incorporation; type: cell-based, human; conditions: serum starved cells, 24 hours; FIG. 15C
Protocol: SCC Cal 27 cells were grown in culture to 70% confluency. The cells were serum starved for 24 hours after which a blocking anti IR antibody (Thermo Scientific; Insulin Receptor (α-Subunit) Ab-3 (Clone 47-9); Cat. #MS-633-PABX) was added at the concentrations indicated, with or without insulin as indicated, and the cells were incubated further for 24 hours.
Left, center, and right bars are insulin, 10 nM, and 20 nM respectively. […] In each case, results were normalized to control groups. The P values for 10 nM and 20 nM are as follows: control vs 10 nM Ab: p=8.616 E-5; control vs 20 nM Ab: p=1.745 E-5; control vs 10 nM Ab+insulin: p=0.00072; control vs 20 nM Ab+insulin: p=0.00558.

[6] = tested on: keratin 1; experiment: Keratin 1 assembly in differentiating skin cells (insoluble fraction, Western blot); type: cell-based, mice; conditions: cells induced to differentiate in presence of insulin or IGF1; FIG. 19
Protocol: Primary skin cells were isolated from the SIRKO and IR (lox/lox) control mice and grown in culture. On day 3, the calcium concentration in the growth medium was raised from 0.05 mM to 0.12 mM to induce differentiation, and the culture was further maintained. On day 6, cells were harvested. To evaluate the effects of IR inactivation on the state of keratin filaments, cell lysates were fractionated into a Triton X-100-soluble fraction, containing the elementary keratin units, and a Triton-insoluble fraction, containing the mature keratin filaments. Western blot analysis was carried out on these fractions to estimate the amount of K1 present in each fraction, using Actin content as a loading control. […] A representative experiment of 4 repeats is depicted in the figures.

Compound | levels of p21, a marker of cellular senescence [1] | epidermal differentiation by histological analysis ([2]; 10^-6M insulin or 10^-7M IGF1 in growth medium, FIG. 3A) | expression of K14 (marker of proliferating keratinocytes) [2] | expression of the differentiation markers Keratin-1 and Loricrin [2] | effect on scratch closure in presence of mitomycin C ([3]; 25 microgram/ml mitomycin C 4 hours prior to wounding, FIG. 6A bottom) | scratch closure ([3]; insulin 10^-6M, IGF-1 10^-7M, 24 hours, absence of mitomycin C, FIG. 6A top) | effect on scratch closure in IR-inactivated cells [4] | SCC cancer cell proliferation with insulin alone [5] | assembly of K1 (keratin 1 in the insoluble fraction) [6]
CCCCCCCCCCCCCC(=O)O[C@@H]1[C@@H](C)[C@@]2(O)[C@@H](C=C(CO)C[C@]3(O)C(=O)C(C)=C[C@@H]23)[C@@H]2C(C)(C)[C@]12OC(C)=O [TPA, 12-O-tetradecanoylphorbol-13-acetate] | decreased levels of p21 | – | – | – | – | – | – | – | –
insulin | – | supported epidermal differentiation | more rapid disappearance | enhanced | not eliminated | facilitated scratch closure more than IGF | eliminated by IR inactivation | increased the proliferation | enhanced assembly of K1
IGF1 | – | – | maintained abnormally in apical layers | delayed expression | – | – | – | – | opposite effect
